Results reported in patent US20250320213A1, “Nitrogen-Containing Heterocyclic Compounds” (Pfizer Inc., priority 2024, published 2025).

How the values were obtained:
STAT6 = biological target: T1, STAT6 (Homo sapiens, UniProt P42226); experiment: STAT6 Reporter Luciferase Assay (IL-13 stimulated HaCaT keratinocyte NanoLuc reporter cells); assay type: cell-based; conditions: IL-13 stimulated HaCaT STAT6 NanoLuc reporter cells; read-out: Reporter EC50
T1 construct: stably transfected HaCaT keratinocyte cell line, which expresses NanoLuc luciferase reporter gene under the transcriptional control of the STAT6 responsive promoter; endogenous in cells; host or cells: HaCaT keratinocyte reporter cell line (stably transfected with a NanoLuc reporter)
T1 sequence (P42226 1-847): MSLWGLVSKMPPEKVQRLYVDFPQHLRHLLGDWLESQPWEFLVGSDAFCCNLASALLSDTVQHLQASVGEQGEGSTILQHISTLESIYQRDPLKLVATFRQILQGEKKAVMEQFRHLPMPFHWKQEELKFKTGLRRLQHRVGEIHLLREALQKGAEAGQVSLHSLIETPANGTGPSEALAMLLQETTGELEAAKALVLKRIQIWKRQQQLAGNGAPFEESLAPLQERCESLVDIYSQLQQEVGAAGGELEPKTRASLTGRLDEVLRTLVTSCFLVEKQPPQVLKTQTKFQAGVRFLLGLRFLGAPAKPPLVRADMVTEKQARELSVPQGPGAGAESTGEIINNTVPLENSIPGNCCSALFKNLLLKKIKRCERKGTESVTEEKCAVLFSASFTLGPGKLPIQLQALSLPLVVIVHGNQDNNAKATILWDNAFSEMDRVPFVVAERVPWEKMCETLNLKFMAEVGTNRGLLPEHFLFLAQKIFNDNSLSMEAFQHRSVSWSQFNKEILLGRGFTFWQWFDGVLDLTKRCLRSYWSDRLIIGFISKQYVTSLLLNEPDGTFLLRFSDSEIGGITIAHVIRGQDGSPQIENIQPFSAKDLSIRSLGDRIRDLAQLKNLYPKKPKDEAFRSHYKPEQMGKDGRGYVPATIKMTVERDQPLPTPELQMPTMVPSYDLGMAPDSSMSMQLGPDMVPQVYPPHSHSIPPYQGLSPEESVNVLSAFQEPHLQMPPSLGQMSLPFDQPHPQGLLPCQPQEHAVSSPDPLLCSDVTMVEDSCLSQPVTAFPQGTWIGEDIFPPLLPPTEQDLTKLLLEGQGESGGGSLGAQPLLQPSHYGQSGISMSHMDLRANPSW
Method in brief: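 Cells were plated overnight, washed, exposed to compound for two hours, stimulated with IL-13 (0.12 nM final) for four hours at 37 °C, and then lysed with Nano-Glo substrate for 15 min before luminescence reading.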

[1] = tested on: CCL17 secretion in peripheral human whole blood; experiment: Human Whole Blood (HWB) CCL17 TR-FRET Assay (IL-13 stimulated CCL17 secretion); assay type: cell-based; conditions: human whole blood, IL-13 stimulated
Method in brief: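 Heparinized peripheral human whole blood was preincubated with compound (11-point, 3-fold series, duplicate) for 2 h at 37 °C, then stimulated with IL-13 at 10 ng/mL final for 48 h at 37 °C. Secreted CCL17 in the serum was quantified by TR-FRET sandwich immunoassay (665/615 nm ratio, 16 h RT); IC50 derived.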

EC50 (STAT6)	IC50 ([1]; 48 hours)	IC50 ([1]; Homo sapiens, 48 h)	SMILES
11 nM	180 nM		CC(C)C1CN(c2ccc(C(=O)N(C)C)cn2)Cc2c(C(=O)NCc3ccc(NC(=O)N(C)C)cc3)nn(C)c21 (single isomer, unassigned) [Example 271, rel-(R or S)-5-(5-(dimethylcarbamoyl)pyridin-2-yl)-N-(4-(3,3-dimethylureido)benzyl)-7-isopropyl-1-methyl-4,5,6,7-tetrahydro-1H-pyrazolo[4,3-c]pyridine-3-carboxamide]
4 nM	30 nM		CC(C)C1CN(c2ccc(C(=O)N(C)C)cn2)Cc2c(C(=O)NCc3ccc(NC(=O)N(C)C)cc3)nn(C)c21 (single isomer, unassigned) [Example 272, rel-(R or S)-5-(5-(dimethylcarbamoyl)pyridin-2-yl)-N-(4-(3,3-dimethylureido)benzyl)-7-isopropyl-1-methyl-4,5,6,7-tetrahydro-1H-pyrazolo[4,3-c]pyridine-3-carboxamide]
3 nM		12 nM	C[C@H]1CN(c2ncc(C(=O)N(C)C)cn2)Cc2c(C(=O)NCc3ccc(NC(=O)N(C)C)cc3)nn(C)c21 (single isomer, unassigned) [Example 273]
2 nM	28 nM		CC(C)n1nc(C(=O)NCc2ccc(NC(=O)N(C)C)cc2)c2c1CC(C(F)(F)F)N(c1ccc(C(=O)N(C)C)cn1)C2 (single isomer, unassigned) [Example 276, rel-(R or S)-5-(5-(dimethylcarbamoyl)pyridin-2-yl)-N-(4-(3,3-dimethylureido)benzyl)-1-isopropyl-6-(trifluoromethyl)-4,5,6,7-tetrahydro-1H-pyrazolo[4,3-c]pyridine-3-carboxamide]
10 nM	109 nM		CC(C)n1nc(C(=O)NCc2ccc(NC(=O)N(C)C)cc2)c2c1CC(C(F)(F)F)N(c1ccc(C(=O)N(C)C)cn1)C2 (single isomer, unassigned) [Example 277, rel-(R or S)-5-(5-(dimethylcarbamoyl)pyridin-2-yl)-N-(4-(3,3-dimethylureido)benzyl)-1-isopropyl-6-(trifluoromethyl)-4,5,6,7-tetrahydro-1H-pyrazolo[4,3-c]pyridine-3-carboxamide]
10 nM		134 nM	CC1CN(c2ccc(C(=O)N(C)C)cn2)Cc2c1nn1c2C(=O)N(Cc2ccc(NC(=O)N(C)C)cc2)CC1 (single isomer, unassigned) [Example 280, rel-(R or S)-6-(9-(4-(3,3-dimethylureido)benzyl)-4-methyl-10-oxo-3,4,7,8,9,10-hexahydropyrido[4′,3′:3,4]pyrazolo[1,5-alpyrazin-2(1H)-yl)-N,N-dimethylnicotinamide]
17 nM	212 nM		CC1CN(c2ccc(C(=O)N(C)C)cn2)Cc2c1nn1c2C(=O)N(Cc2ccc(NC(=O)N(C)C)cc2)CC1 (single isomer, unassigned) [Example 281, rel-(R or S)-6-(9-(4-(3,3-dimethylureido)benzyl)-4-methyl-10-oxo-3,4,7,8,9,10-hexahydropyrido[4′,3′:3,4]pyrazolo[1,5-alpyrazin-2(1H)-yl)-N,N-dimethylnicotinamide]
1 nM		7 nM	C[C@H]1CN(c2ccc(C(=O)N(C)C)cn2)Cc2c(C(=O)NCc3ccc(NC(=O)N(C)C)cc3)nn(C3(C)CC3)c21 (single isomer, unassigned) [Example 285]
1 nM		13 nM	C[C@H]1CN(c2ccc(C(=O)N(C)C)cn2)Cc2c(C(=O)NCc3ccc(NC(=O)N(C)C)cc3)nn(CC3CC3)c21 (single isomer, unassigned) [Example 287]

SMILES	EC50 (STAT6)	IC50 ([1]; 48 hours)	IC50 ([1]; Homo sapiens, 48 h)
CN(C)C(=O)Nc1ccc(CNC(=O)c2nn(C)c3c2[C@H]2CCC[C@@H](C3)N2c2ccc(C(=O)N(C)C)cn2)cc1 (single isomer, unassigned) [Example 274]	695 nM		4770 nM
CN(C)C(=O)Nc1ccc(CNC(=O)c2nn(C)c3c2[C@H]2CCC[C@@H](C3)N2c2ccc(C(=O)N(C)C)cn2)cc1 (single isomer, unassigned) [Example 275]	7 nM	30 nM	
